Reference: publication PMC6277434, “Discovery of a potent HMG-CoA reductase degrader that eliminates statin-induced reductase accumulation and lowers cholesterol” (Nature Communications, 2018)
Several values for one entry are separate records, joined by “and”; a condition that tells them apart may be missing. Equal entries are not always repeated.

Key:
[1] = target: T1, HMGCR (TM1-8)-GFP (Cricetulus griseus, UniProt P00347)
T1 sequence (P00347 1-346): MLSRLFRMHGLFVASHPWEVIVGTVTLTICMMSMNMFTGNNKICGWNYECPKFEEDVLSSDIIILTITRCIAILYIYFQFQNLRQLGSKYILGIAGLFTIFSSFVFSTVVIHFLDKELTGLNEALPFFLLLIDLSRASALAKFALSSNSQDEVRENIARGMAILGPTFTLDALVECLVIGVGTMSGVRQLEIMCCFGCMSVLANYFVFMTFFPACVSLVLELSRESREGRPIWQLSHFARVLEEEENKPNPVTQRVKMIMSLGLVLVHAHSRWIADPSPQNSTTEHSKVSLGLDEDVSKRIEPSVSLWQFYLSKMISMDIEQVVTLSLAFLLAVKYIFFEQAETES

[2] = target: T1, HMGCR (TM1-8)-GFP; assay: HMGCR (TM1-8)-GFP fluorescent assay (high-content imaging) in CHG cells; conditions: 16 h, DMSO-treated cells = 100
[3] = test system: LXR signaling pathway; design: method as in earlier work; conditions: previous studies ref 2 (Yang, C. et al. J. Biol. Chem. 281, 27816-27826 (2006)); cited from earlier work
[4] = target: T1, HMGCR (TM1-8)-GFP; assay: Immunoblotting of overexpressed HMGCR (TM1-8)-GFP in CHG cells; type: cell-based, hamster; design: corresponding to the amino acids from 1 to 346 of hamster HMGCR; expressed in transfected cells; conditions: 16 h, DMSO = 100
Method: Fig. 2 A reporting system that measures HMGCR degradation. a Schematic of the HMGCR (TM1-8)-GFP fusion protein. […] Data are from three independent experiments and presented as mean ± SD. Source data are provided as a Source Data File.
(§1) Cells were harvested and homogenized in the RIPA buffer (50 mM Tris-HCl, pH 8.0, 150 mM NaCl, 2 mM MgCl2, 1.5% NP-40, 0.1% SDS, and 0.5% sodium deoxycholate) supplemented with protease cocktail inhibitor, 10 μM MG-132, 10 μg ml^−1 leupeptin and 1 mM phenylmethylsulfonyl fluoride. The protein concentrations of lysates were determined using BCA method (Beyotime). Samples were mixed with the membrane protein solubilization buffer (62.5 mM Tris-HCl, pH 6.8, 15% SDS, 8 M urea, 10% glycerol, and 100 mM DTT) plus the 4× loading buffer (150 mM Tris-HCl, pH 6.8, 12% SDS, 30% glycerol, 6% 2-mercaptoethanol, and 0.02% bromophenol blue) and incubated for 30 min at 37 °C. Proteins were resolved by SDS-PAGE and transferred to nitrocellulose membranes (GE Healthcare). Immnoblots were blocked with 5% non-fat milk in TBS containing 0.075% Tween-20 (TBST) and probed with indicated antibodies overnight at 4 °C. After washing in TBST for five times, blots were incubated with HRP-conjugated secondary antibodies for 2 h at room temperature. Immunoreactivity was developed with Clarity Western ECL chemiluminescent substrates (170–5061, Bio-Rad). Western blot images were captured by Amersham Imager 600 (GE Healthcare), and integrated optical intensities of each band were quantified by Image-Pro Plus 6 software (Media Cybernetics). Uncropped blots are shown in Supplementary Figs. 9–13.

[5] = target: T2, HMGCR (Cricetulus griseus, UniProt P00347); assay: Immunoblotting of endogenous HMGCR protein in CHO-7 (or CHG) cells; type: cell-based, Chinese hamster; conditions: 16 h; for endogenous HMGCR protein level (immunoblot), mean: CHG cells, DMSO = 100
T2 construct: endogenous in cells; host or cells: CHO-7, CHG, SRD-13A, SRD-15
T2 sequence (P00347 1-887): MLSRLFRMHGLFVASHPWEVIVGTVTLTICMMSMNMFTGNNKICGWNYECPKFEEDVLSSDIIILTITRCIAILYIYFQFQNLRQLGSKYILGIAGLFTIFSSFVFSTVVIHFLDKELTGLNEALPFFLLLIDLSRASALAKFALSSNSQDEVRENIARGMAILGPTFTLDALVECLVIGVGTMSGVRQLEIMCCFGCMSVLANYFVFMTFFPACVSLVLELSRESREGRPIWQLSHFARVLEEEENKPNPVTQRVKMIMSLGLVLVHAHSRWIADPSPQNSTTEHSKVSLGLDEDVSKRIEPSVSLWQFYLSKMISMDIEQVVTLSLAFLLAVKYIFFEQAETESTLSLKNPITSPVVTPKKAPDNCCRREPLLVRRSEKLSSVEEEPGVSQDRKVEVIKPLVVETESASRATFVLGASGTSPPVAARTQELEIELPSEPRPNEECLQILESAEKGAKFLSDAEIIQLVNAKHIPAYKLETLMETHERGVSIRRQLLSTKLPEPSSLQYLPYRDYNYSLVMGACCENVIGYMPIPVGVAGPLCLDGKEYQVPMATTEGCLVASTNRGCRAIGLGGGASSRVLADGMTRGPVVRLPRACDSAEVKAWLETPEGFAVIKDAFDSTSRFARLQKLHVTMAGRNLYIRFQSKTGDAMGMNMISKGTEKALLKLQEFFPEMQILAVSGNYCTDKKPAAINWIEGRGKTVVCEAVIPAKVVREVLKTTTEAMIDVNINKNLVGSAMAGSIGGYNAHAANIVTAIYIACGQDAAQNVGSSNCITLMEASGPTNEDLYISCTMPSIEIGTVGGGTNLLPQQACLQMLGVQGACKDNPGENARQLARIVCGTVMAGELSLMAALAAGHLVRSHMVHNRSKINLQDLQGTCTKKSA
Method: CHO-7 (Chinese hamster ovary cell, a clone of CHO-K1 cell line selected for growth in LPDS) and Huh7 (a human hepatocellular carcinoma cell line), SRD-13A (a Scap-deficient CHO-7 cell line) and SRD-15 (an Insig-1 and Insig-2-deficient CHO-7 cell line) were generous gifts from Russell Debose-Boyd at UT Southwestern Medical Center, USA. All cells were grown in a monolayer at 37 °C with 5% CO2. Huh7 cells were maintained in medium A supplemented with 10% FBS. CHO-7 and SRD-15 cells were maintained in medium B supplemented with 5% FBS. SRD-13A cells were maintained in medium B with 5% FBS, 5 μg ml^−1 cholesterol, 1 mM sodium mevalonate, 10 μM sodium oleate. No cell lines used in this study were found in the database of commonly misidentified cell lines that is maintained by ICLAC and NCBI Biosample. The cell lines have not been authenticated recently. No test for mycoplasma contamination was performed.
as §1

[6] = test system: LXR signaling pathway; assay: RT-qPCR of LXR target genes (SREBP-1c, ABCA1, ABCG8) in Huh-7 cells; type: cell-based, human; conditions: 16 h
Method: Cells were treated as described in corresponding figure legends, then total RNA was extracted from cells or mouse livers using TRI Reagent (T9424, Sigma-Aldrich). Equal amounts of RNA from cells or mice receiving the same treatment were pooled were used for cDNA synthesis with oligo dT and reverse transcriptase MLV (Promega). Gene expression was analyzed by quantitative real-time PCR on a Stratagene Mx30005PTM Q-PCR Systems. The primers used were listed in Supplementary Tables 2–4. […]
pathway. a-c Huh-7 cells were treated with indicated compounds for 16 h and then harvested for total RNA isolation and RT-qPCR. Cells treated with LXR agonist T0901317 w ere used as positive controls. The relative mRNA levels of SREBP -1c (a), ABCA1 (b) and ABCG8 (c) were quantified . GAPDH was the reference gene. The relative mRNA level in DMSO-treated cells was defined as 1. Data are from 3 independent experiments and presented as mean ± SD.
(1 picture or pasted object on this page, not shown here)

CC(C)CCC[C@@H](C)[C@H]1CC[C@@]2(C)C3=C(CC[C@]12C)[C@@]1(C)CC[C@H](O)C(C)(C)[C@@H]1CC3 [24,25-DHL, 24,25-dihydrolanosterol, reference compound]
EC50 [1]: ~1500 nM and 1500 nM
HMGCR (TM1-8)-GFP fluorescent intensity, mean ([2]; 0.001 uM): 100
HMGCR (TM1-8)-GFP fluorescent intensity, mean ([2]; 0.0078 uM): 100.168
HMGCR (TM1-8)-GFP fluorescent intensity, mean ([2]; 0.023 uM): 100
HMGCR (TM1-8)-GFP fluorescent intensity, mean ([2]; 0.078 uM): 97.2588
HMGCR (TM1-8)-GFP fluorescent intensity, mean ([2]; 0.234 uM): 80.6542
HMGCR (TM1-8)-GFP fluorescent intensity, mean ([2]; 2.34 uM): 45.713
HMGCR (TM1-8)-GFP fluorescent intensity, mean ([2]; 15.6 uM): 10.4985
HMGCR (TM1-8)-GFP fluorescent intensity, mean ([2]; 31.2 uM): 5
activation of LXR [3]: no effect
overexpressed HMGCR (TM1-8)-GFP protein level (anti-GFP immunoblot), mean ([4]; 0.3 uM): 87.2697
overexpressed HMGCR (TM1-8)-GFP protein level (anti-GFP immunoblot), mean ([4]; 1 uM): 51.2487
overexpressed HMGCR (TM1-8)-GFP protein level (anti-GFP immunoblot), mean ([4]; 3 uM): 6.898
endogenous HMGCR protein level (immunoblot), mean ([5]; 0.3 uM): 73.3548
endogenous HMGCR protein level (immunoblot), mean ([5]; 1 uM): 35.9866
endogenous HMGCR protein level (immunoblot), mean ([5]; 3 uM): 7.195
EC50 ([5]; CHO-7 cells, read-out: EC50 to decrease endogenous HMGCR (dose–response immunoblotting)): 1600 nM
expression of LXR target genes (SREBP-1c, ABCA1 and ABCG8) mRNA [6]: did not activate the LXR target genes
